Experimental data as given in ChEMBL document CHEMBL1201862, “PubChem BioAssay data set” (2004).
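A five-concentration, 48-hour dose response in 96-well plates underlies each endpoint, interpolated linearly between surrounding concentrations. The concentration for 50% growth inhibition is given as GI50.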 Active and inactive are the calls of the source. Rule as the data show it: active = GI50 up to about 1.1 µM and inactive = higher.

How the values were obtained:
Assay in all cases: NCI anticancer screen, dose series, 48 h
OVCAR-3 = tested on: OVCAR-3
SK-MEL-2 = tested on: SK-MEL-2
IGROV-1 = tested on: IGROV-1
786-0 = tested on: 786-0
SK-MEL-28 = tested on: SK-MEL-28
SN12C = tested on: SN12C
U-251 = tested on: U-251
K562 = tested on: K562
HT-29 = tested on: HT-29
OVCAR-8 = tested on: OVCAR-8
SNB-19 = tested on: SNB-19
OVCAR-4 = tested on: OVCAR-4
LOX IMVI = tested on: LOX IMVI
KM12 = tested on: KM12
A549 = tested on: A549
SF-268 = tested on: SF-268
CAKI-1 = tested on: CAKI-1
COLO 205 = tested on: COLO 205

Measured: GI50

O=c1cccccc1NCCCCCCNc1cccccc1=O
inactive: OVCAR-3 > 100 µM | SK-MEL-2 > 100 µM | IGROV-1 > 100 µM | 786-0 > 100 µM | SK-MEL-28 > 100 µM | SN12C > 100 µM | U-251 > 100 µM | K562 > 100 µM | HT-29 > 100 µM | OVCAR-8 > 100 µM | SNB-19 > 100 µM | OVCAR-4 > 100 µM | LOX IMVI > 100 µM | KM12 > 100 µM | A549 > 100 µM | SF-268 > 100 µM | CAKI-1 > 100 µM | COLO 205 > 100 µM

CCOC(=O)C1=C(NC)OCC1=O
inactive: OVCAR-3 > 100 µM | SK-MEL-2 > 100 µM | IGROV-1 > 100 µM | 786-0 > 100 µM | SK-MEL-28 > 100 µM | SN12C > 100 µM | U-251 > 100 µM | K562 > 100 µM | HT-29 > 100 µM | OVCAR-8 > 100 µM | SNB-19 > 100 µM | OVCAR-4 > 100 µM | LOX IMVI > 100 µM | KM12 > 100 µM | A549 > 100 µM | SF-268 > 100 µM | CAKI-1 > 100 µM | COLO 205 > 100 µM

O=C(Cc1ccccc1)NN1C(=O)C(Cl)C1c1ccc(Cl)cc1 (configuration not stated)
inactive: OVCAR-3 > 100 µM | SK-MEL-2 > 100 µM | IGROV-1 > 100 µM | 786-0 > 100 µM | SK-MEL-28 > 100 µM | SN12C > 100 µM | U-251 > 100 µM | K562 72.9 µM | HT-29 > 100 µM | OVCAR-8 > 100 µM | SNB-19 69.8 µM | OVCAR-4 > 100 µM | LOX IMVI > 100 µM | KM12 > 100 µM | A549 > 100 µM | SF-268 > 100 µM | CAKI-1 > 100 µM | COLO 205 > 100 µM

CC(C)Cc1cccc(C(C)C)c1NC(=O)CCC(=O)N/N=C1\C(=N/NC(=O)CCC(=O)Nc2c(C(C)C)cccc2C(C)C)C(c2ccc3c(c2)OCO3)Oc2ccccc21 (configuration not stated)
inactive: SK-MEL-2 > 100 µM | IGROV-1 29.5 µM | SK-MEL-28 > 100 µM | SN12C 43.2 µM | U-251 35 µM | K562 25 µM | HT-29 43.8 µM | OVCAR-8 69.3 µM | SNB-19 91 µM | OVCAR-4 74.1 µM | LOX IMVI 44.5 µM | KM12 > 100 µM | A549 65.3 µM | SF-268 67.8 µM | CAKI-1 53.2 µM | COLO 205 > 100 µM

CC#N.O[C@@H]1CCCC[C@@H]1O.O[C@@H]1CCCC[C@@H]1O.[TeH2]
inactive: OVCAR-3 31.8 µM | SK-MEL-2 74.3 µM | IGROV-1 26.9 µM | 786-0 34.1 µM | SK-MEL-28 72.3 µM | SN12C 24.2 µM | U-251 12.9 µM | K562 18.7 µM | HT-29 33.4 µM | OVCAR-8 21.8 µM | SNB-19 33.1 µM | OVCAR-4 31.8 µM | LOX IMVI 10.6 µM | KM12 50.8 µM | A549 45.8 µM | SF-268 69.2 µM | CAKI-1 > 100 µM | COLO 205 84.3 µM

CCCCCCCSCC1OC(n2cnc3c(N)ncnc32)C(O)C1O (configuration not stated)
inactive: SK-MEL-2 20.3 µM | IGROV-1 14.6 µM | SK-MEL-28 > 100 µM | SN12C 21.8 µM | U-251 > 100 µM | K562 22.8 µM | HT-29 1.42 µM | OVCAR-8 14.4 µM | SNB-19 30.5 µM | OVCAR-4 21.8 µM | LOX IMVI 49.9 µM | KM12 8.22 µM | A549 31.8 µM | SF-268 34.2 µM | CAKI-1 5.08 µM | COLO 205 14 µM

O=C1c2ccccc2CCCCCCCCCCC12OCCCO2
inactive: OVCAR-3 32.5 µM | SK-MEL-2 24.3 µM | IGROV-1 41.4 µM | 786-0 67.1 µM | SK-MEL-28 55.8 µM | SN12C 55 µM | U-251 24.4 µM | K562 68.4 µM | HT-29 15.1 µM | OVCAR-8 87.3 µM | SNB-19 29.5 µM | OVCAR-4 57.1 µM | LOX IMVI 29.2 µM | KM12 27.6 µM | A549 28.8 µM | SF-268 11.8 µM | CAKI-1 25.5 µM | COLO 205 19.2 µM

CN(C)CC1(Cc2ccccc2)CC/C(=C\c2ccccc2)C1=O (configuration not stated)
inactive: OVCAR-3 31.4 µM | SK-MEL-2 50.9 µM | IGROV-1 47.8 µM | 786-0 35.1 µM | SK-MEL-28 > 100 µM | SN12C 69.2 µM | U-251 32.8 µM | K562 29.4 µM | HT-29 20.7 µM | OVCAR-8 34.5 µM | SNB-19 22.2 µM | OVCAR-4 51.3 µM | LOX IMVI 29.6 µM | KM12 40.3 µM | A549 96.4 µM | SF-268 61 µM | CAKI-1 49.1 µM | COLO 205 32.9 µM

S=C(N/N=C/c1ccccc1)NC12CC3CC(CC(C3)C1)C2
inactive: OVCAR-3 27.2 µM | SK-MEL-2 40 µM | IGROV-1 > 100 µM | 786-0 56.1 µM | SK-MEL-28 59.3 µM | SN12C 17.7 µM | U-251 53.8 µM | K562 9.27 µM | HT-29 5.31 µM | OVCAR-8 60 µM | SNB-19 > 100 µM | OVCAR-4 42.2 µM | LOX IMVI 22.8 µM | KM12 36.2 µM | A549 27.8 µM | SF-268 31.9 µM | CAKI-1 49.3 µM | COLO 205 27 µM

CC(C)OC(=O)c1cc(NC(=O)C(C)(C)C)c(F)cc1Cl
inactive: OVCAR-3 > 100 µM | SK-MEL-2 > 100 µM | IGROV-1 > 100 µM | 786-0 > 100 µM | SK-MEL-28 > 100 µM | SN12C > 100 µM | U-251 > 100 µM | K562 > 100 µM | HT-29 > 100 µM | OVCAR-8 > 100 µM | SNB-19 > 100 µM | OVCAR-4 > 100 µM | LOX IMVI > 100 µM | KM12 > 100 µM | A549 > 100 µM | SF-268 > 100 µM | CAKI-1 > 100 µM | COLO 205 > 100 µM

C/N=c1\ss/c(=N\C(=S)N(C)C)n1-c1ccccc1
inactive: OVCAR-3 > 100 µM | SK-MEL-2 > 64 µM | IGROV-1 97.7 µM | 786-0 38.3 µM | SK-MEL-28 > 100 µM | SN12C > 100 µM | U-251 67 µM | K562 > 100 µM | HT-29 > 31.6 µM | OVCAR-8 > 100 µM | SNB-19 > 52.7 µM | OVCAR-4 > 100 µM | LOX IMVI > 100 µM | KM12 > 100 µM | A549 > 100 µM | SF-268 34 µM | CAKI-1 > 100 µM | COLO 205 > 100 µM

C/C(=N\NC(=S)Nc1ccc([N+](=O)[O-])cc1S(=O)(=O)O)c1ccccn1
inactive: OVCAR-3 26.6 µM | SK-MEL-2 29.4 µM | IGROV-1 73.1 µM | 786-0 59.8 µM | SK-MEL-28 > 100 µM | SN12C 59 µM | U-251 33.5 µM | K562 41.1 µM | HT-29 34.6 µM | OVCAR-8 34.3 µM | OVCAR-4 36.8 µM | LOX IMVI 53.2 µM | KM12 51.8 µM | A549 37.7 µM | SF-268 95.3 µM | CAKI-1 52.8 µM | COLO 205 36.5 µM

COC(=O)c1ccc(/N=N/N(C)COc2ccc(Br)cc2)cc1
inactive: OVCAR-3 > 100 µM | SK-MEL-2 > 100 µM | IGROV-1 > 100 µM | SK-MEL-28 > 100 µM | SN12C 68.5 µM | U-251 > 71.3 µM | K562 38.1 µM | HT-29 49.3 µM | OVCAR-8 > 81.5 µM | SNB-19 > 100 µM | OVCAR-4 54.2 µM | LOX IMVI 49.2 µM | KM12 75.5 µM | A549 66.7 µM | SF-268 > 75.5 µM | CAKI-1 > 57.7 µM | COLO 205 > 100 µM

COC(=O)C1=C(OC)c2cc3c(cc2C(c2cc(OC)c(OC)c(OC)c2)C1C(=O)OC)OCO3 (configuration not stated)
inactive: OVCAR-3 > 100 µM | SK-MEL-2 > 100 µM | IGROV-1 > 100 µM | 786-0 > 100 µM | SK-MEL-28 > 100 µM | SN12C > 100 µM | U-251 > 100 µM | K562 > 100 µM | HT-29 > 100 µM | OVCAR-8 79.3 µM | OVCAR-4 > 100 µM | LOX IMVI > 100 µM | KM12 > 100 µM | A549 > 100 µM | SF-268 > 100 µM | CAKI-1 > 100 µM | COLO 205 38.7 µM

CC12CCC(C(=O)N3CC=CCC3)(OC1=O)C2(C)C (configuration not stated)
inactive: OVCAR-3 > 100 µM | SK-MEL-2 > 100 µM | IGROV-1 > 100 µM | SK-MEL-28 > 100 µM | SN12C > 100 µM | U-251 > 100 µM | K562 > 100 µM | HT-29 > 100 µM | OVCAR-8 > 100 µM | SNB-19 > 100 µM | OVCAR-4 > 100 µM | LOX IMVI > 100 µM | KM12 > 100 µM | A549 > 100 µM | SF-268 > 100 µM | CAKI-1 > 100 µM | COLO 205 > 100 µM

O=C(O)C(Cl)(Cl)Cl
inactive: SK-MEL-2 > 100 µM | IGROV-1 > 100 µM | SK-MEL-28 > 100 µM | SN12C > 100 µM | U-251 > 100 µM | K562 > 100 µM | OVCAR-8 > 100 µM | SNB-19 > 100 µM | OVCAR-4 > 100 µM | LOX IMVI > 100 µM | KM12 > 100 µM | A549 > 100 µM | SF-268 > 100 µM | CAKI-1 > 100 µM | COLO 205 > 100 µM
